Reference: ChEMBL document CHEMBL5096204 (J Med Chem, 2021)

How the values were obtained:
[1] = Lipophilicity, logD of the compound in octanol/buffer at pH 7.4 by shake flask method; format: physicochemical
[2] = Dissociation constant, pKa of the compound; format: physicochemical
[3] = Volume of distribution in Han-wistar rat at […], iv; format: ADME; settings: in vivo, dose 1.5 µmol/kg
[4] = Volume of distribution in SCID mouse at 5 umol/kg, iv; format: ADME; settings: in vivo, dose 5 µmol/kg
[5] = Apparent permeability of compound from apical to basolateral side in human Caco-2 cells; format: ADME, cell-based
[6] = Drug metabolism in SCID mouse plasma assessed as 1-Isopropyl-5-(2-(piperidin-4-yl)-1H-pyrrolo[2,3-b]pyridin-4-yl)-pyridin-2(1H)-one metabolite formation at 0.5 mg/kg, iv administered as cassette dose; format: ADME, organism-based; settings: in vivo

SMILES | logD [1] | pKa [2] | Vd [3] [L/kg] | further results
COc1cc(F)ccc1-c1ccnc2[nH]c(C3CCNCC3)cc12 | 1.2 | 10.2 | 10 | Vd [4]: 14 L/kg
COc1cc(F)ccc1-c1ccnc2[nH]c(C3CCN(C)CC3)cc12 | 2.6 | 9 | 5.2 | –
COc1cc(F)ccc1-c1ccnc2[nH]c(-c3ccc(CN4CCOCC4)cc3)cc12 | 4.4 | – | – | –
COc1cc(C(=O)N2CCCC2)ccc1-c1ccnc2[nH]c(C3CCNCC3)cc12 | – | 10.2 | 5.8 | Papp A→B [5]: < 0.01 ×10⁻⁶ cm/s
COc1cc(C(=O)N2CCCC2)ccc1-c1ccnc2[nH]c(-c3ccc(CN4CCOCC4)cc3)nc12 | 2.6 | – | – | –
COc1cc(F)ccc1-c1ccnc2[nH]c(C3CCN(C(C)=O)CC3)cc12 | 3.4 | – | 1.7 | –
COc1cc(=O)n(C)cc1-c1ccnc2[nH]c(C3CCN(CC(=O)N(C)C)CC3)cc12 | 0.7 | – | – | –
COc1cc(F)ccc1-c1ccnc2[nH]c(C3CCN(CCO)CC3)cc12 | 2.4 | 8.5 | 12 | –
COc1cc(F)ccc1-c1ccnc2[nH]c(C3CCOCC3)cc12 | 3.9 | – | – | –
COc1cc(F)ccc1-c1ccnc2[nH]c(-c3ccc(CN4CCOCC4)cc3)nc12 | 3.7 | – | – | –
COc1cc(F)ccc1-c1ccnc2[nH]c(C3CCC(NC(C)=O)C3)nc12 (centres undefined) | 2.3 | – | – | –
CC(C)n1cc(-c2ccnc3[nH]c(C4CCNCC4)cc23)ccc1=O | -0.2 | – | – | –
COc1cc(F)ccc1-c1ccnc2[nH]c(C3CCNCC3)nc12 | 0 | – | – | –
COc1cc(C(=O)N2CCCC2)ccc1-c1ccnc2[nH]c(C3CCN(CCO)CC3)cc12 | 1.3 | – | – | –
COc1cc(F)ccc1-c1ccnc2[nH]c(C3CCN(CC(=O)N(C)C)CC3)cc12 | 2.9 | 8 | 2.3 | –
CN(C)C(=O)CN1CCC(c2cc3c(-c4ccc(=O)n(CCC5CCOCC5)c4)ccnc3[nH]2)CC1 | 1.5 | – | – | –
COc1cc(C(=O)N2CCCC2)ccc1-c1ccnc2[nH]c(C3CCOCC3)cc12 | 3 | – | 0.8 | –
CC(C)n1cc(-c2ccnc3[nH]c(C4CCN(CC(F)F)CC4)cc23)ccc1=O | 2.9 | 6 | 1.8 | –
O=C(c1ccc(-c2ccnc3[nH]c(-c4ccc(CN5CCOCC5)cc4)nc23)cc1)N1CCCC1 | 3.2 | – | – | –
CN(C)C(=O)CN1CCC(c2cc3c(-c4ccc(=O)n(CC5CCOCC5)c4)ccnc3[nH]2)CC1 | 1.4 | – | – | –
COc1cc(C(=O)N2CCCC2)ccc1-c1ccnc2[nH]c(C3CCN(C(C)=O)CC3)cc12 | 2.5 | – | 0.9 | –
COc1cc(F)ccc1-c1ccnc2[nH]c([C@H]3CC[C@H](NC(C)=O)CC3)cc12 | 3.8 | – | 2.5 | –

Further lines, with some results ahead:

logD [1] | pKa [2] | Vd [3] [L/kg] | SMILES | further results
1.9 | – | – | CN(C)C(=O)CN1CCC(c2cc3c(-c4ccc(=O)n(C5CCC5)c4)ccnc3[nH]2)CC1 | –
1.1 | – | – | COCCn1cc(-c2ccnc3[nH]c(C4CCN(CC(=O)N(C)C)CC4)cc23)ccc1=O | –
1.2 | – | – | CCn1cc(-c2ccnc3[nH]c(C4CCN(CC(=O)N(C)C)CC4)cc23)ccc1=O | –
2.2 | 6.9 | 2.6 | CNC(=O)CN1CCC(c2cc3c(-c4ccc(=O)n(C(C)C)c4)ccnc3[nH]2)CC1 | –
0.4 | – | 2.9 | CC(C)n1cc(-c2ccnc3[nH]c(C4CCN(CC(=O)N(C)C)CC4)cc23)cnc1=O | –
2.1 | – | – | CC(=O)N1CCC(c2cc3c(-c4ccc(=O)n(C(C)C)c4)ccnc3[nH]2)CC1 | –
3.1 | – | – | Cc1nc2ccc(-c3ccnc4[nH]c(C5CCN(CC(=O)N(C)C)CC5)cc34)cc2n1C(C)C | –
3.4 | 6.5 | 1.6 | CC(C)n1cc(-c2ccnc3[nH]c(C4CCN(Cc5cccs5)CC4)cc23)ccc1=O | –
1.1 | – | – | CN(C)C(=O)CN1CCC(c2cc3c(-c4ccc(=O)n(C5CCOCC5)c4)ccnc3[nH]2)CC1 | –
– | 7.8 | 8.1 | CC(C)n1cc(-c2ccnc3[nH]c(C4CCN(CC(=O)N5CCCCC5)CC4)cc23)ccc1=O | Vd [4]: 1.5 L/kg; Drug metabolism [6]: Metabolite_Notdetected
– | 7.9 | 5.9 | CC(C)n1cc(-c2ccnc3[nH]c(C4CCN(CC(=O)N(C)C)CC4)cc23)ccc1=O | –
1.7 | – | – | CSCCn1cc(-c2ccnc3[nH]c(C4CCN(CC(=O)N(C)C)CC4)cc23)ccc1=O | –
2 | – | – | CC(C)Cn1cc(-c2ccnc3[nH]c(C4CCN(CC(=O)N(C)C)CC4)cc23)ccc1=O | –
2 | 7.6 | 2.9 | CC(C)n1nc(-c2ccnc3[nH]c(C4CCN(CC(=O)N(C)C)CC4)cc23)ccc1=O | –
1.1 | – | – | CN(C)C(=O)CN1CCC(c2cc3c(-c4ccc(=O)n(C)c4)ccnc3[nH]2)CC1 | –
– | 7.8 | 3.9 | CC(C)n1cc(-c2ccnc3[nH]c(C4CCN(CC(=O)N5CCCC5)CC4)cc23)ccc1=O | Vd [4]: 1.2 L/kg; Drug metabolism [6]: Metabolite_Notdetected
